Results as given in PubChem BioAssay (NCI).
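96-well plates; 48 h exposure; 5 concentrations. Endpoints by linear interpolation between flanking doses. Not reached: highest tested concentration assigned. The concentration for 50% growth inhibition is given as GI50. TGI denotes the concentration required for complete inhibition of growth.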

Key:
Experiment in all cases: DTP human tumour cell line panel, 48 h
MDA-MB-435 = system: MDA-MB-435
MDA-N = system: MDA-N
T-47D breast = system: T-47D breast
DLD-1 colon = system: DLD-1 colon
DMS 273 small cell lung = system: DMS 273 small cell lung
LXFL 529 NSCLC = system: LXFL 529 NSCLC
SNB-78 CNS = system: SNB-78 CNS
XF 498 CNS = system: XF 498 CNS
RXF-631 renal = system: RXF-631 renal

SMILES	TGI (MDA-MB-435)	TGI (T-47D breast)	GI50 (MDA-MB-435)	GI50 (T-47D breast)	also measured
C/C=C/C=C\C1OC(O)([C@H](CC)C(=O)NC/C=C/C=C(\C)[C@H](OC)C(C)C2OC(\C=C/C=C/C=C(\C)C(=O)c3c(O)ccn(C)c3=O)[C@H](O)[C@@H]2O)C(O)C(O)C1(C)C (stereo partly specified)	> 100 µM	> 100 µM			TGI (MDA-N): > 100 µM
CS(=O)(=O)Nc1cc(-c2ccc3ncnc(Nc4ccc5c(cnn5Cc5ccccc5F)c4)c3c2)cnc1Cl	8.32 µM	3.14 µM	2.35 µM	0.367 µM	
O=C(N/C(=C\c1ccc(Oc2ccc(Cl)c(Cl)c2)cc1)c1nc2ccccc2[nH]1)c1ccccc1					TGI (DLD-1 colon): 42.9 µM; TGI (DMS 273 small cell lung): 53.9 µM; TGI (LXFL 529 NSCLC): 32.3 µM; TGI (SNB-78 CNS): 54.8 µM; TGI (XF 498 CNS): 34.6 µM
S=C(Nc1ccccc1)N(Cc1ccccc1)c1ccccc1	49.5 µM	> 100 µM			
CC(C)CCc1c(Cl)nc(Cl)nc1Cl	32.2 µM				TGI (MDA-N): 21.4 µM
O=Cc1ccc(O)c2ncccc12	27.8 µM	> 76 µM	3.83 µM	2.56 µM	
CN(C)c1ccc(O)c2c1C[C@H]1C[C@H]3[C@H](N(C)C)C(=O)C(C(N)=O)=C(O)[C@@]3(O)C(=O)C1=C2O	33.2 µM	> 100 µM	5.18 µM	5.29 µM	
COc1ccccc1/C=N/N=C(\N)NO					TGI (DLD-1 colon): > 100 µM; TGI (LXFL 529 NSCLC): > 100 µM; TGI (SNB-78 CNS): > 100 µM
COc1cccc2c(=O)c3c(sc12)c(NCCN(C)C)nc1ccccc13	3.2 µM	3.98 µM	1.71 µM	1.65 µM	
COc1cc2cccc(NC(=O)c3cc(OC)c(OC)c(OC)c3Br)c2cc1OC					TGI (DLD-1 colon): > 100 µM; TGI (LXFL 529 NSCLC): 10.9 µM; TGI (SNB-78 CNS): 49 µM; TGI (XF 498 CNS): 7.37 µM
COc1cc(/C=C/C(=O)c2c(C)n([O-])c3ccc(Cl)cc3[n+]2=O)cc(OC)c1OC	> 100 µM	> 100 µM	> 100 µM	40.5 µM	
O=C1/C(=C/c2ccc(Cl)cc2)COc2ccc(O)c(O)c21	2.63 µM	2.98 µM	0.702 µM	1.2 µM	
O=C(NCP(=O)(O)O)c1cccnc1	> 100 µM	> 100 µM			TGI (MDA-N): > 100 µM
COc1cc(/C=C2/C(=O)NC(Cc3cc(OC)c(OC)c(C)c3OC)C(=O)N2Cc2ccccc2)c(OC)c(C)c1OC (stereo unspecified)					TGI (DLD-1 colon): > 100 µM; TGI (DMS 273 small cell lung): > 100 µM; TGI (LXFL 529 NSCLC): > 100 µM; TGI (RXF-631 renal): > 100 µM
O=C(CCCCCCC(=O)Nc1ccc2c(c1)/C(=C/c1ccc[nH]1)C(=O)N2)NO	4.57 µM		0.332 µM		
COc1ccc2nc(C)cc(Nc3ccccc3O)c2c1	45.4 µM	96.8 µM	18.1 µM	32.8 µM	
COC(=O)[C@@]1(O)C[C@H]2O[C@]1(C)n1c3ccccc3c3c4c(c5c6ccccc6n2c5c31)C(=O)NC4	1.6 µM	2.05 µM	0.0745 µM	0.0805 µM	

SMILES	TGI (MDA-MB-435)	TGI (T-47D breast)	GI50 (MDA-MB-435)	GI50 (T-47D breast)	also measured
Cc1ccc(C2=C(c3ccccc3)C(Br)(c3ccccc3)C(c3ccccc3)=C2c2ccc(C)cc2)cc1					TGI (DLD-1 colon): > 100 µM; TGI (LXFL 529 NSCLC): > 100 µM; TGI (SNB-78 CNS): > 100 µM; TGI (XF 498 CNS): > 100 µM
O=P1(O)c2ccccc2Nc2cc(C(F)(F)F)ccc21	> 100 µM	> 100 µM			TGI (DLD-1 colon): > 100 µM; TGI (DMS 273 small cell lung): > 100 µM; TGI (LXFL 529 NSCLC): > 100 µM; TGI (MDA-N): > 100 µM; TGI (SNB-78 CNS): > 100 µM; TGI (XF 498 CNS): > 100 µM
CCCCCCCCCCCC[n+]1ccc(C(N)=O)cc1	14.9 µM	11.8 µM	3.17 µM	3.06 µM	
C=C1C(=O)O[C@H]2[C@H]1CC/C(CNS(=O)(=O)c1cccc3ccccc13)=C\CC[C@@]1(C)O[C@@H]21	3.42 µM	6.51 µM	1.6 µM	1.96 µM	
O=C(/C=C/c1ccc(C(F)(F)F)cc1)c1ccc(Nc2nc(NCCO)nc(N3CCOCC3)n2)cc1	5.35 µM	7.77 µM	2.23 µM	2.28 µM	
COc1ccc2c(c1)OC(N)=C(C#N)C2c1ccc(F)cc1 (stereo unspecified)	0.601 µM	> 100 µM	0.22 µM	3.78 µM	
N=C(N)c1ccc(-c2ccc(-c3cccs3)s2)nc1	3.42 µM	5.57 µM	1.74 µM	2.06 µM	
O=C(N/N=C\c1ccc(N(CCCl)CCCl)cc1Cl)c1cccnc1	46.1 µM	20 µM	17.1 µM	2.8 µM	
COc1ccc(/C=C/C(=O)c2cc3c(N)c(C(=O)Nc4ccccc4)sc3nc2C)cc1		> 50 µM		0.33 µM	
O=C1C[C@H]2CC3(CC[C@H]2CN1)OCCO3					TGI (DLD-1 colon): > 100 µM; TGI (DMS 273 small cell lung): > 100 µM; TGI (LXFL 529 NSCLC): > 100 µM; TGI (SNB-78 CNS): > 100 µM; TGI (XF 498 CNS): > 100 µM
C/C(=C\CC[C@]1(C)OC(C)(C)OC1CC/C(C)=C/CO[Si](c1ccccc1)(c1ccccc1)C(C)(C)C)CC/C=C/CO[Si](C)(C)C(C)(C)C (stereo partly specified)					TGI (DLD-1 colon): > 100 µM; TGI (DMS 273 small cell lung): > 100 µM; TGI (SNB-78 CNS): > 100 µM
CC1/C(=N/Nc2ccc([N+](=O)[O-])cc2)CC2C3(C)CCC2(C(C)C(=O)O)C(=O)C13 (stereo unspecified)	> 100 µM	> 100 µM	27.4 µM	4.14 µM	
C=C1CC[C@@H]2[C@](C)(COC(C)=O)[C@H](OC(C)=O)CC[C@@]2(C)[C@@H]1C/C=C1/C(=O)OC[C@H]1OC(C)=O	10.1 µM	13.8 µM	2.63 µM	2.86 µM	
COC(=O)c1cc2oc(/C=C3\SC(=S)N(NC(C)=O)C3=O)cc2n1Cc1ccccc1	4.02 µM		1.1 µM		
CCCN(CCC)C(=O)[C@H](CC)[C@@H]1CC[C@@H](C)[C@@H]([C@H](C)[C@@H](O)[C@@H](C)C(=O)[C@H](CC)C2O[C@]3(C=C[C@@H](O)[C@]4(CC[C@@](C)([C@H]5CC[C@](O)(CC)[C@H](C)O5)O4)O3)[C@H](C)C[C@@H]2C)O1 (stereo partly specified)	9.71 µM	14.5 µM	2.96 µM	3.08 µM	
Oc1c(N=Nc2ccccc2)c2ccccc2c2ccc3ccccc3c12	> 100 µM	> 100 µM			
C=CC(=O)Nc1cccc(C)c1Nc1ncc2cc(-c3c(Cl)c(OC)cc(OC)c3Cl)ccc2n1	17.4 µM	> 100 µM	4.14 µM	1.64 µM	
